According to ChEMBL document CHEMBL1133487, “Synthesis and biological evaluation of 2,5-dihydropyrazol” (Bioorg Med Chem Lett, 2000):

Experiments:
[1] = biological target: Phosphodiesterase 3 (Homo sapiens, UniProt Q14432+Q13370); assay: Inhibitory potency against guinea pig ventricular phosphodiesterase 3; type: protein assay, Cavia porcellus; conditions: target entry is the homologue from another species
[2] = biological target: Phosphodiesterase 4 (Homo sapiens, UniProt P27815+Q08499+Q07343+Q08493); assay: Inhibitory potency against guinea pig ventricular phosphodiesterase 4; type: protein assay, Cavia porcellus; conditions: target entry is the homologue from another species
[3] = test system: Cavia porcellus; assay: Inhibition of Eosinophilia after peroral administration at 10 mg/Kg compound in guinea pig; type: functional; conditions: po
[4] = test system: Cavia porcellus; assay: Inhibition of histamine induced bronchoconstriction in guinea pig after intravenous administration; type: functional
[5] = test system: Canis familiaris; assay: Minimum emetic dose in dogs after peroral administration; type: functional, Canis lupus familiaris
[6] = test system: Canis familiaris; assay: Minimum emetic dose in dogs after intravenous administration; type: functional, Canis lupus familiaris

| Structure (SMILES) | IC50 [1] | IC50 [2] | inhibition in vivo at 10 mg/kg [3] | ED50 [4] | Dose [5] | Dose [6] |
| --- | --- | --- | --- | --- | --- | --- |
| O=c1c2cn(Cc3ccccc3)c3ccccc3c-2nn1CCc1ccccc1 | > 100 µM | 10 µM | – | – | – | – |
| CC(C)n1nc2c3ccccc3n(Cc3ccccc3)cc-2c1=O | 86 µM | 1.2 µM | – | – | – | – |
| CCCCn1nc2c3ccccc3n(Cc3cccc(Cl)c3)cc-2c1=O | > 20 µM | 2.3 µM | 53% | 0.062 mg/kg | >10 mg/kg | – |
| CC(C)(C)n1nc2c3ccccc3n(Cc3cccs3)cc-2c1=O | > 20 µM | 0.8 µM | – | – | – | – |
| CCCCn1nc2c3ccccc3n(Cc3cccc(N)c3)cc-2c1=O | > 200 µM | 12 µM | – | – | – | – |
| O=c1c2cn(CC3CCCCC3)c3ccccc3c-2nn1C1CCCC1 | > 20 µM | 0.4 µM | – | – | – | – |
| CCCCn1nc2c3ccccc3n(Cc3cccc([N+](=O)[O-])c3)cc-2c1=O | > 20 µM | 11 µM | – | – | – | – |
| CCn1nc2c3ccccc3n(Cc3ccccc3)cc-2c1=O | 10 µM | 3 µM | – | – | – | – |
| O=c1c2cn(Cc3ccccc3)c3ccccc3c-2nn1CC1CCC1 | > 200 µM | 0.8 µM | – | – | – | – |
| CCCCn1nc2c3ccccc3n(Cc3ccccc3)cc-2c1=O | 31 µM | 2.1 µM | 52% | > 0.1 mg/kg | – | >3 mg/kg |
| O=c1c2cn(Cc3cccs3)c3ccccc3c-2nn1C1CCCC1 | > 20 µM | 0.4 µM | 62% | 0.083 mg/kg | – | >3 mg/kg |
| Cn1nc2c3ccccc3n(Cc3ccccc3)cc-2c1=O | 67 µM | 14 µM | – | – | – | – |
| CCCCn1[nH]c2c(cnc3ccccc32)c1=O | 136 µM | 90 µM | – | – | – | – |
| O=c1c2cn(Cc3ccccc3)c3ccccc3c-2nn1C1CCCC1 | 26 µM | 0.7 µM | – | – | – | – |
| CCCCn1nc2c3ccccc3n(CCc3ccccc3)cc-2c1=O | > 200 µM | 160 µM | – | – | – | – |
| CC(C)(C)n1nc2c3ccccc3n(CC3CCCCC3)cc-2c1=O | > 20 µM | 0.5 µM | – | – | – | – |
| CCCCn1nc2c3ccccc3n(Cc3cccs3)cc-2c1=O | > 20 µM | 2.7 µM | 56% | 0.037 mg/kg | >10 mg/kg | – |
| CC(C)(C)n1nc2c3ccccc3n(Cc3ccccc3)cc-2c1=O | > 100 µM | 2.1 µM | 51% | – | >10 mg/kg | – |
| O=c1c2cn(Cc3ccccc3)c3ccccc3c-2nn1CC1CCCCC1 | 102 µM | 24 µM | – | – | – | – |
| CCCCn1nc2c3ccccc3n(-c3ccccc3)cc-2c1=O | 68 µM | 18 µM | – | – | – | – |
| O=c1c2cn(Cc3ccccc3)c3ccccc3c-2nn1Cc1ccccc1 | 25 µM | 7 µM | – | – | – | – |
| COc1ccc(C2CNC(=O)C2)cc1OC1CCCC1 (configuration not stated) [ROLIPRAM] | – | – | 58% | 0.004 mg/kg | – | 0.03 mg/kg |
| O=c1[nH]nc2c3ccccc3n(Cc3ccccc3)cc1-2 | 48 µM | 37 µM | – | – | – | – |
| CCCCn1nc2c3ccccc3n(CC3CCCCC3)cc-2c1=O | 111 µM | 0.7 µM | 60% | > 0.1 mg/kg | – | >1 mg/kg |
| CCCCCn1nc2c3ccccc3n(Cc3ccccc3)cc-2c1=O | 120 µM | 6.4 µM | – | – | – | – |
| CCn1c(=O)c2ccccc2n(-c2cccc([N+](=O)[O-])c2)c1=O [NITRAQUAZONE] | > 200 µM | 0.05 µM | – | – | – | – |
| O=c1c2cn(Cc3ccccc3)c3ccccc3c-2nn1C1CC2CCC1C2 (configuration not stated) | > 20 µM | 1.4 µM | – | – | – | – |
